In publication PMC3690672 (European journal of nuclear medicine and molecular imaging, 2009):
Where “and” joins values, the source holds several entries; their conditions need not be identical. Equal values may be shown once. Read-outs that look alike come from different tables or passages of the source.

Tests used:
[1] = system: multidrug resistance-associated proteins (MRPs), such as MRP1; details: cited from earlier work
[2] = biological target: T1, P-glycoprotein (P-gp) at the blood-brain barrier (Rattus norvegicus, UniProt Q6PSM0); details: for DV (Logan) of VPM / DV of VPM (2T4K model) / K1 of VPM (2T4K model) / k2 of VPM (2T4K model) / k3 of VPM (2T4K model) / k4 of VPM (2T4K model): whole brain, PET 120 min after, mean±SD
[3] = system: P-gp at the blood-brain barrier; details: 15 mg/kg, rats; cited from earlier work
[4] = humans, 2 mg/kg; cited from earlier work
[5] = biological target: T1, P-glycoprotein (P-gp) at the blood-brain barrier; test: in vivo
[6] = system: P-gp at the blood-brain barrier; details: humans, 2 mg/kg, plasma 490±203 ng/ml; cited from earlier work
[7] = Tariquidar or elacridar concentrations in plasma and brain by LC/MS; format: in vivo; details: rat; for concentration at 210 min / concentration at 180 min: intravenous
[8] = biological target: T1, P-glycoprotein (P-gp) at the blood-brain barrier; details: for Mean DV increase (of baseline DV): 3 mg/kg tariquidar; for DV (Logan) of VPM / DV of VPM (2T4K model) / K1 of VPM (2T4K model) / k2 of VPM (2T4K model) / k3 of VPM (2T4K model) / k4 of VPM (2T4K model): after 3 mg/kg tariquidar (scan 2, 120 min after), mean±SD, n=6
[9] = system: P-glycoprotein (P-gp) at the blood-brain barrier; format: in vivo, rat
[10] = Hill fit of whole-brain DV vs inhibitor dose

T1 sequence (Q6PSM0 1-1272): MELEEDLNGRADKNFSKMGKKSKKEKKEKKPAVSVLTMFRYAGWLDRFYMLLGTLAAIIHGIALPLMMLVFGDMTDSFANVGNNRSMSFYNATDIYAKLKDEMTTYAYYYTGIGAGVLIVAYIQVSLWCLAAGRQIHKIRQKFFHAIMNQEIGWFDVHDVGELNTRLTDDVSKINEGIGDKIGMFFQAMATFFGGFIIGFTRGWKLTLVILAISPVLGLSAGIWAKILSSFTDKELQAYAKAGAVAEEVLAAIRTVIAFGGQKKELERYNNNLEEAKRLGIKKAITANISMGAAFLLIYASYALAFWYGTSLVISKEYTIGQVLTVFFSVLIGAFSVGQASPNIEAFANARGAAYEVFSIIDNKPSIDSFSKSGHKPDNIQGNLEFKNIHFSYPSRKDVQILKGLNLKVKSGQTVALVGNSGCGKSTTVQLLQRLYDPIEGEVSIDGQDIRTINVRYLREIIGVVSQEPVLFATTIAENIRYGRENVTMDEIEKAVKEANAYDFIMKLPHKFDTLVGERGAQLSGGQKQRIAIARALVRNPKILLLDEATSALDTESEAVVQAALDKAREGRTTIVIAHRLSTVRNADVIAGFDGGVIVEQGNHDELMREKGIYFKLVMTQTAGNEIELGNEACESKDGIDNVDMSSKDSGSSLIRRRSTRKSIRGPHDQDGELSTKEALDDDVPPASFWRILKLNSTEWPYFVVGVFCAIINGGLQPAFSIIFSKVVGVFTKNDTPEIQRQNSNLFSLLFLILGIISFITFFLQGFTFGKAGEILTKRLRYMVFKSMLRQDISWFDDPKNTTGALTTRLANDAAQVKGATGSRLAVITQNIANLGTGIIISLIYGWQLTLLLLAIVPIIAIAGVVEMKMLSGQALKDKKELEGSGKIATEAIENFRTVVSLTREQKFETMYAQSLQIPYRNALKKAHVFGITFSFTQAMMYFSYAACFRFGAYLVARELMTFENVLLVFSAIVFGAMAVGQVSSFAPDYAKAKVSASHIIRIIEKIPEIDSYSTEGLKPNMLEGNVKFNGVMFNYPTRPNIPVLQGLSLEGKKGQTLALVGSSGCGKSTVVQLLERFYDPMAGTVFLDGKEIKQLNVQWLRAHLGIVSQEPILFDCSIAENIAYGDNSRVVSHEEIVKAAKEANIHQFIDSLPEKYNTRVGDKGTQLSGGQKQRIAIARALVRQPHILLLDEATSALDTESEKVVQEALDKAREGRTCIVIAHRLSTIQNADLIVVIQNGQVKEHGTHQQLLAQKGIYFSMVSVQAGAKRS

## COc1cc2c(cc1OC)CN(CCc1ccc(NC(=O)c3cc(OC)c(OC)cc3NC(=O)c3cnc4ccccc4c3)cc1)CC2 [tariquidar, Tariquidar dimesylate]
[1]
  Inhibition of MRPs, such as MRP1: do not inhibit
[2]; [10]
  DVmax (maximum effect): 11.9±0.5 ml·ml^−1
  Hill factor n: 3.0±0.6
[2]; according to dose-response assessment (Fig. 2)
  Dose leading to complete inhibition of P-gp: above 6 mg/kg
[2]; at maximum effective doses, rat brain
  Maximum increase in VPM brain distribution (DV) over baseline: up to 11 fold
[2]; inhibitor 3.75 mg/kg
  Whole-brain DV increase (factor) as compared to baseline scans: 7.0±1.1
[2]; inhibitor 7.5 mg/kg
  Whole-brain DV increase (factor) as compared to baseline scans: 10.1±0.8
[2]; inhibitor 15 mg/kg
  Whole-brain DV increase (factor) as compared to baseline scans: 9.9±1.8
[2]; inhibitor 30 mg/kg
  Whole-brain DV increase (factor) as compared to baseline scans: 10.2±0.3
[2]; rat, in vivo
  Increase of brain DVs at the half-maximum effect plasma concentration: approximately 4 fold
[2]; inhibitor 3.75 mg/kg i.v.
  DV (Logan) of VPM: 8.80±1.06 (0.9) ml·ml^−1
  DV of VPM (2T4K model): 8.92±1.11 (2.3) ml·ml^−1
  K1 of VPM (2T4K model): 0.81±0.16 (13.9) ml·ml^−1·min^−1
  k2 of VPM (2T4K model): 0.18±0.05 (50.3) min^−1
  k3 of VPM (2T4K model): 0.20±0.02 (101.3) min^−1
  k4 of VPM (2T4K model): 0.22±0.07 (51.4) min^−1
[2]; inhibitor 7.5 mg/kg i.v.
  DV (Logan) of VPM: 12.66±0.77 (0.9) ml·ml^−1
  DV of VPM (2T4K model): 12.93±0.79 (1.7) ml·ml^−1
  K1 of VPM (2T4K model): 1.27±0.24 (17.4) ml·ml^−1·min^−1
  k2 of VPM (2T4K model): 0.31±0.12 (82.5) min^−1
  k3 of VPM (2T4K model): 0.37±0.10 (97.3) min^−1
  k4 of VPM (2T4K model): 0.18±0.01 (23.9) min^−1
[2]; inhibitor 15 mg/kg i.v.
  DV (Logan) of VPM: 12.35±1.79 (1.4) ml·ml^−1
  DV of VPM (2T4K model): 12.72±1.83 (1.8) ml·ml^−1
  K1 of VPM (2T4K model): 1.02±0.02 (15.0) ml·ml^−1·min^−1
  k2 of VPM (2T4K model): 0.43±0.16 (50.3) min^−1
  k3 of VPM (2T4K model): 0.48±0.04 (39.2) min^−1
  k4 of VPM (2T4K model): 0.12±0.02 (20.4) min^−1
[2]; inhibitor 30 mg/kg i.v.
  DV (Logan) of VPM: 12.76±0.04 (0.7) ml·ml^−1
  DV of VPM (2T4K model): 13.11±0.22 (2.1) ml·ml^−1
  K1 of VPM (2T4K model): 1.22±0.23 (11.2) ml·ml^−1·min^−1
  k2 of VPM (2T4K model): 0.30±0.04 (54.6) min^−1
  k3 of VPM (2T4K model): 0.38±0.18 (59.4) min^−1
  k4 of VPM (2T4K model): 0.17±0.09 (19.8) min^−1
[3]
  DV increase of VPM following tariquidar: approximately 12 fold
[4]
  Plasma concentration at the time of the PET scan: 0.49 ± 0.203 µg/mL
[5]
  EC50 at 180 min: 0.545 ± 0.0299 mg/L
[5]; Sprague-Dawley, iv
  ED50 at 120 min: 3 ± 0.2 mg/kg
[6]
  Increase of brain DVs of VPM: 1.24 fold
[7]; brain, 3 mg/kg
  concentration at 210 min: 0.457 ± 0.037 µg/mL
[7]; brain, 15 mg/kg
  concentration at 180 min: 6.45 ± 3.6 µg/mL
[7]; brain, iv, 3 mg/kg
  Kp at […]: 1 ± 0.3
[7]; brain, iv, 15 mg/kg
  Kp at 3 h: 1.7 ± 0.9
[7]; plasma, 3 mg/kg
  concentration at 210 min: 0.503 ± 0.139 µg/mL
[7]; plasma, 15 mg/kg
  concentration at 180 min: 4 ± 0.39 µg/mL
[8]; cerebellum
  Mean DV increase (of baseline DV): 2.8±0.7
  DV (Logan) of VPM: 6.07±0.52 (0.9) ml·ml^−1
  DV of VPM (2T4K model): 6.14 ml·ml^−1 and 6.14±0.54 (2.9) ml·ml^−1
  K1 of VPM (2T4K model): 0.73±0.14 (11.7) ml·ml^−1·min^−1
  k2 of VPM (2T4K model): 0.32±0.13 (46.6) min^−1
  k3 of VPM (2T4K model): 0.30±0.08 (75.2) min^−1
  k4 of VPM (2T4K model): 0.20±0.05 (26.4) min^−1
[8]; corpus striatum
  Mean DV increase (of baseline DV): 5.9±1.1
  DV (Logan) of VPM: 8.70±1.05 (0.6) ml·ml^−1
  DV of VPM (2T4K model): 8.89±1.08 (2.7) ml·ml^−1
  K1 of VPM (2T4K model): 0.79±0.13 (10.5) ml·ml^−1·min^−1
  k2 of VPM (2T4K model): 0.28±0.08 (46.6) min^−1
  k3 of VPM (2T4K model): 0.47±0.22 (53.4) min^−1
  k4 of VPM (2T4K model): 0.22±0.06 (23.1) min^−1
[8]; entorhinal cortex
  Mean DV increase (of baseline DV): 3.0±1.4
  DV (Logan) of VPM: 6.09±1.37 (1.1) ml·ml^−1
  DV of VPM (2T4K model): 6.20±1.40 (3.4) ml·ml^−1
  K1 of VPM (2T4K model): 0.64±0.17 (12.9) ml·ml^−1·min^−1
  k2 of VPM (2T4K model): 0.37±0.14 (57.5) min^−1
  k3 of VPM (2T4K model): 0.34±0.10 (68.9) min^−1
  k4 of VPM (2T4K model): 0.15±0.05 (22.5) min^−1
[8]; frontal motor cortex
  Mean DV increase (of baseline DV): 3.1±1.1
  DV (Logan) of VPM: 7.14±0.80 (0.9) ml·ml^−1
  DV of VPM (2T4K model): 7.33±0.82 (1.7) ml·ml^−1
  K1 of VPM (2T4K model): 0.63±0.08 (9.5) ml·ml^−1·min^−1
  k2 of VPM (2T4K model): 0.24±0.05 (49.6) min^−1
  k3 of VPM (2T4K model): 0.32±0.09 (68.7) min^−1
  k4 of VPM (2T4K model): 0.19±0.06 (23.8) min^−1
[8]; hippocampus
  Mean DV increase (of baseline DV): 6.4±0.9
  DV (Logan) of VPM: 8.01±0.88 (0.9) ml·ml^−1
  DV of VPM (2T4K model): 8.17±0.91 (2.2) ml·ml^−1
  K1 of VPM (2T4K model): 0.75±0.11 (11.1) ml·ml^−1·min^−1
  k2 of VPM (2T4K model): 0.32±0.08 (57.9) min^−1
  k3 of VPM (2T4K model): 0.43±0.09 (69.4) min^−1
  k4 of VPM (2T4K model): 0.18±0.05 (23.8) min^−1
[8]; thalamus
  Mean DV increase (of baseline DV): 7.1±1.1
  DV (Logan) of VPM: 9.45±1.03 (0.6) ml·ml^−1
  DV of VPM (2T4K model): 9.64 ml·ml^−1 and 9.64±1.06 (2.0) ml·ml^−1
  K1 of VPM (2T4K model): 0.93±0.12 (9.0) ml·ml^−1·min^−1
  k2 of VPM (2T4K model): 0.33±0.18 (48.8) min^−1
  k3 of VPM (2T4K model): 0.47±0.11 (64.4) min^−1
  k4 of VPM (2T4K model): 0.23±0.06 (23.6) min^−1
[9]; 15 mg/kg, decline of TACs after peak uptake
  Reversibility of the effect on brain TACs: at least partially reversible
[9]; tariquidar 15 mg/kg or elacridar 5 mg/kg at 60 min after radiotracer injection
  Time of peak VPM brain uptake (maximum effect) after inhibitor injection: 30 ± 5 min and 30 min
